ChEMBL document CHEMBL5137035 (Eur J Med Chem, 2022)

Experiments:
[1] = test system: Raji; test: Antiproliferative activity against human Raji cells assessed as cell growth inhibition measured after 96 hrs by MTT assay; type: functional, cell-based
[2] = biological target: T1, Dihydroorotate dehydrogenase (quinone), mitochondrial (Homo sapiens, UniProt Q02127); test: Inhibition of human N-terminal SUMO-tagged DHODH expressed in Escherichia coli BL21(DE3) at 100 nM using dihydroorotate as substrate by DCIP based microplate reader analysis relative to control
T1 sequence (Q02127 whole entry): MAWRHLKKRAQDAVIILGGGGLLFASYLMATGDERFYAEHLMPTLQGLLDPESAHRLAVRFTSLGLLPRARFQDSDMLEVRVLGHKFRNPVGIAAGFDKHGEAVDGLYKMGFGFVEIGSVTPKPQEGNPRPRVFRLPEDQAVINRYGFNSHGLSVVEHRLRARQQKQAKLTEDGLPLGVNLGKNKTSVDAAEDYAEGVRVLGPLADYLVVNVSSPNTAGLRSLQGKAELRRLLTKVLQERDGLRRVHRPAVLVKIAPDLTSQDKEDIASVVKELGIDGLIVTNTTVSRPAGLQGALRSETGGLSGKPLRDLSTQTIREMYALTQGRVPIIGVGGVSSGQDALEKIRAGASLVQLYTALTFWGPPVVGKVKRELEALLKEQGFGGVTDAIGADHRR

[3] = biological target: T1, Dihydroorotate dehydrogenase (quinone), mitochondrial; test: Inhibition of human N-terminal SUMO-tagged DHODH expressed in Escherichia coli BL21(DE3) at 1 uM using dihydroorotate as substrate by DCIP based microplate reader analysis relative to control
[4] = biological target: T1, Dihydroorotate dehydrogenase (quinone), mitochondrial; test: Inhibition of human N-terminal SUMO-tagged DHODH expressed in Escherichia coli BL21(DE3) using dihydroorotate substrate by DCIP based microplate reader analysis
[5] = Cytotoxicity against human HL7702 cells expressing human DHODH assessed as reduction in cell viability measured after 96 hrs by MTT assay; type: toxicity, cell-based; conditions: HL7702 (L02) cells expressing human DHODH
[6] = test system: SUD4; test: Antiproliferative activity against human SU-DHL-4 cells expressing human DHODH assessed as reduction in cell viability measured after 96 hrs by MTT assay; type: functional, cell-based; conditions: SU-DHL-4, 96 h
[7] = test system: U-937; test: Antiproliferative activity against human U-937 cells expressing human DHODH assessed as reduction in cell viability measured after 96 hrs by MTT assay; type: functional, cell-based; conditions: U-937, 96 h
[8] = Cytotoxicity against human HCoEpiC cells expressing human DHODH assessed as reduction in cell viability measured after 96 hrs by MTT assay; type: toxicity, cell-based
[9] = test system: KG-1; test: Antiproliferative activity against human KG-1 cells expressing human DHODH assessed as reduction in cell viability measured after 96 hrs by MTT assay; type: functional, cell-based; conditions: KG-1, 96 h
[10] = Hepatotoxicity in BALB/c mouse assessed as change in blood AST level at 300 mg/kg, po measured after 14 days by biochemical assay; type: toxicity, organism-based; conditions: in vivo, 336 h, time 14 day
[11] = Hepatotoxicity in BALB/c mouse assessed as change in blood ALT level at 300 mg/kg, po measured after 14 days by biochemical assay; type: toxicity, organism-based; conditions: in vivo, 336 h, time 14 day
[12] = Acute toxicity in BALB/c mouse assessed as average body weight at 300 mg/kg, po measured after 14 days; type: organism-based; conditions: in vivo, 336 h, time 14 day
[13] = test system: A-375; test: Antiproliferative activity against human A375 cells expressing human DHODH assessed as reduction in cell viability measured after 96 hrs by MTT assay; type: functional, cell-based; conditions: A-375, 96 h
[14] = test system: Kasumi 1; test: Antiproliferative activity against human Kasumi 1 cells expressing human DHODH assessed as reduction in cell viability measured after 96 hrs by MTT assay; type: functional, cell-based; conditions: Kasumi 1, 96 h
[15] = test system: HCT-116; test: Antiproliferative activity against human HCT-116 cells expressing human DHODH assessed as reduction in cell viability measured after 96 hrs by MTT assay; type: functional, cell-based; conditions: HCT-116, 96 h
[16] = Hepatotoxicity in BALB/c mouse assessed as change in blood ALP level at 300 mg/kg, po measured after 14 days by biochemical assay; type: toxicity, organism-based; conditions: in vivo, 336 h, time 14 day
[17] = Renal toxicity in BALB/c mouse assessed as change in blood uric acid level at 300 mg/kg, po measured after 14 days by biochemical assay; type: organism-based; conditions: in vivo, 336 h, time 14 day
[18] = Acute toxicity in BALB/c mouse assessed as decrease in body weight at 300 mg/kg, po measured for 14 days; type: organism-based; conditions: in vivo, 336 h, time 14 day
[19] = Toxicity in BALB/c mouse assessed as animal death at 300 mg/kg, po measured for 14 days; type: organism-based; conditions: in vivo, 336 h, time 14 day

Row | inhibition [2] [%] | inhibition [3] [%] | IC50 [4] [nM] | Compound | further results
1 | 87.7 | 96.6 | 13.9 | COc1cccc(-c2cc(F)c(NC(=O)/C(C#N)=C(/C)O)cc2OC(C)C)c1 | IC50 [1]: 980 nM
2 | 82.9 | 97.3 | 27.3 | CCC(C)Oc1cc(NC(=O)/C(C#N)=C(/C)O)c(F)cc1-c1ccccc1F (stereo not given) | 
3 | 72.1 | 94.7 | 39.8 | CCC(C)Oc1cc(NC(=O)/C(C#N)=C(/C)O)c(F)cc1-c1ccc(OC)cc1 (stereo not given) | 
4 | 77.6 | 96.2 | 30.1 | COc1cccc(-c2cc(F)c(NC(=O)/C(C#N)=C(/C)O)cc2OCC(C)C)c1 | 
5 | 85.3 | 98 | 22.2 | CCC(C)Oc1cc(NC(=O)/C(C#N)=C(/C)O)c(F)cc1-c1cccc(Cl)c1C (stereo not given) | 
6 | 86.3 | 98.8 | 21.8 | CCC(C)Oc1cc(NC(=O)/C(C#N)=C(/C)O)c(F)cc1-c1ccccc1Cl (stereo not given) | 
7 | 92.4 | 99.3 | 7.9 | CCC(C)Oc1cc(NC(=O)/C(C#N)=C(/C)O)c(F)cc1-c1cccc(C(F)(F)F)c1 (stereo not given) | IC50 at 96 h [5]: > 10000 nM; IC50 [6]: 300 nM; IC50 [7]: 560 nM; IC50 at 96 h [8]: > 10000 nM; IC50 [1]: 45.5 nM; IC50 [9]: 990 nM; Activity [10]: Toxic; Activity [11]: Toxic; Activity [12]: 17.3 g; IC50 [13]: 500 nM; IC50 [14]: 500 nM; IC50 [15]: 270 nM; Activity [16]: Toxic; Activity [17]: Toxic
8 |  |  |  | COc1cccc(-c2cc(F)c(Nc3ncccc3C(=O)O)c(F)c2)c1 [ASLAN-003] | IC50 [1]: 270 nM
9 | 95 | 99.7 | 9.8 | CCC(C)Oc1cc(NC(=O)/C(C#N)=C(/C)O)c(F)cc1-c1cccc2ccccc12 (stereo not given) | IC50 [1]: 215 nM
10 | 48.4 | 89.2 |  | COc1cccc(-c2ccc(NC(=O)/C(C#N)=C(/C)O)cc2OC)c1 | 
11 |  | 71.2 |  | C/C(O)=C(\C#N)C(=O)Nc1ccc(C(F)(F)F)cc1 | 
12 | 68.5 | 95.4 | 33.3 | CCC(C)Oc1cc(NC(=O)/C(C#N)=C(/C)O)c(F)cc1-c1ccc(Cl)cc1 (stereo not given) | 
13 | 80.4 | 96.9 | 28.9 | CCC(C)Oc1cc(NC(=O)/C(C#N)=C(/C)O)c(F)cc1-c1ccccc1 (stereo not given) | 
14 | 83.1 | 96.9 | 28.8 | CCC(C)Oc1cc(NC(=O)/C(C#N)=C(/C)O)c(F)cc1-c1ccc2c(c1)OCO2 (stereo not given) | 
15 | 58.6 | 92.9 |  | C=C(C)COc1cc(NC(=O)/C(C#N)=C(/C)O)c(F)cc1-c1cccc(OC)c1 | 
16 | 47.2 | 85.5 |  | CCC(C)Oc1cc(NC(=O)/C(C#N)=C(/C)O)c(F)cc1-c1cc(Cl)ccc1C (stereo not given) | 
17 | 87.5 | 98.9 | 20.1 | CCC(C)Oc1cc(NC(=O)/C(C#N)=C(/C)O)c(F)cc1-c1cccc(Cl)c1 (stereo not given) | 
18 | 87.7 | 98.5 | 20.3 | CCC(C)Oc1cc(NC(=O)/C(C#N)=C(/C)O)c(F)cc1-c1ccnc(F)c1 (stereo not given) | 
19 | 72.5 | 96.1 | 37.8 | CCC(C)Oc1cc(NC(=O)/C(C#N)=C(/C)O)c(F)cc1-c1ccc(F)cc1 (stereo not given) | 

Row | Compound | inhibition [2] [%] | inhibition [3] [%] | IC50 [4] [nM] | further results
20 | CCC(C)Oc1cc(NC(=O)/C(C#N)=C(/C)O)c(F)cc1-c1ccc2ccccc2c1 (stereo not given) | 95.6 | 99.8 | 6.6 | IC50 at 96 h [5]: 6480 nM; IC50 [6]: 160 nM; IC50 [7]: 200 nM; IC50 at 96 h [8]: 4710 nM; IC50 [1]: 18.8 nM; IC50 [9]: 620 nM; IC50 [13]: 270 nM; Activity [18]: Toxic; Activity [19]: Toxic; IC50 [14]: 130 nM; IC50 [15]: 150 nM
